Values joined by “and” are separate entries in the source; they are usually repeats but may differ in a detail not shown here. Identical values can stand only once. Like-named read-outs stand apart in the source and are kept apart here.

Series [1] has as its system parental Ba/F3 cells. Put plainly: CellTiter-Glo cell viability assay. The class given is cell-based, murine. The following applies: for cell viability: CTG, parental.
The nature of series [2]: CellTiter-Glo cell viability assay. It counts as cell-based, murine. The following applies: mouse, CTG, parental, single replicates.
Series [3] relates to Ba/F3^myr-Akt1 cells. The experiment in a line: CellTiter-Glo cell viability assay. The following applies: for cell viability: CTG.
Series [4] relates to pAkt^S473 and downstream targets in Ba/F3 myr-Akt1. The following applies: Ba/F3 myr-Akt1, 4-h treatment.
For series [5], the system named is pAkt^S473 and downstream targets in Ba/F3 myr-Akt3. Put plainly: Western blot analysis, Ba/F3 myr-Akt3 cells. It counts as cell-based, murine. The following applies: Ba/F3 myr-Akt3, 4-h treatment.
Procedure: Cells were seeded into six-well tissue culture plates (Sarstedt) (BaF3 myr-Akt1/2/3: 10^6 cells/well, PANC1: 250.000 cells/well). After 24 h incubation, cells were treated with various concentrations of inhibitors or DMSO and incubated for additional 4.5 h before cells were washed twice with ice-cold PBS. Cell lysis was initiated by addition of 100 μL RIPA buffer (Cell Signaling Technology) per well supplemented with phosphatase and protease inhibitor cocktails (Sigma) followed by incubation on ice for 20 min. Cells were then harvested by scraping (PANC1) or centrifugation (BaF3). Whole cell lysates were cleared by centrifugation at 14,000×g/4 °C for 10 min and transferred into fresh, pre-cooled microcentrifuge tubes. Protein concentrations were determined using the Pierce BCA protein assay (Thermo) as per manufacturer’s instructions. Equal amounts of protein were separated by SDS-PAGE and transferred to Immobilon-FL PVDF membranes (Merck Millipore) using Pierce™ 1-step transfer buffer (Thermo) and the Pierce™ Power Blotter (Thermo). Membranes were washed for 5 min with ddH2O, blocked with Intercept®Blocking Buffer TBS (Li-Cor) for 1 h at room temperature, and then incubated with primary antibodies diluted in Intercept®Blocking Buffer TBS overnight at 4 °C with gentle agitation. […]
For series [6], the system named is Ba/F3^myr-Akt3 cells. Put plainly: CellTiter-Glo cell viability assay. The following applies: for cell viability: CTG.

For `C=CC(=O)Nc1ccc2[nH]c(=O)n(C3CCN(Cc4ccc(-c5nc6cc[nH]c(=O)c6cc5-c5ccccc5)cc4)CC3)c2c1` [Borussertib, reference compound], the cell viability is 106.4 % of control and 91.0 % of control in series [1] (0.1 nM, single replicates, 0.0001 µM); 102.2 % of control and 91.4 % of control in series [1] (5000 nM, single replicates, 5 µM); 99.2 % of control and 105.4 % of control in series [3] (myr-Akt1, 0.1 nM, single replicates, 0.0001 µM); 3.1 % of control and 7.0 % of control and 4.5 % of control in series [3] (myr-Akt1, 5000 nM, single replicates, 5 µM); 96.6 % of control and 95.9 % of control in series [6] (myr-Akt3, 0.1 nM, single replicates, 0.0001 µM); 70.7 % of control and 65.0 % of control in series [6] (myr-Akt3, 5000 nM, single replicates, 5 µM). For the same compound, the EC50 in series [1] (Mus musculus, BaF3, read-out: CTG BaF3, Mean, parental cells, mean of replicates) is 20.1 µM; in series [1] (read-out: CTG BaF3, individual determinations, parental cells, single replicates) it was 16.8 µM and 10.9 µM and 24.4 µM; in series [3] (Mus musculus, read-out: CTG BaF3myr-Akt1, Mean, mean of replicates) it was 0.44 µM; in series [3] (Mus musculus, read-out: CTG BaF3myr-Akt1, individual determinations, single replicates), 0.341 µM; in series [3] (read-out: CTG BaF3myr-Akt1, individual determinations, single replicates) it was 0.491 µM and 0.488 µM; in series [6] (Mus musculus, read-out: CTG BaF3myr-Akt3, Mean, mean of replicates) it was 6.84 µM. Further, the EC50 in series [6] (Mus musculus, read-out: CTG BaF3myr-Akt3, individual determinations, single replicates) was 6.16 µM; in series [6] (read-out: CTG BaF3myr-Akt3, individual determinations, single replicates) it was 6.18 µM and 7.62 µM and 7.38 µM. In addition, the viability at 3 days, 0.0001 µM in series [2] (0.1 nM, read-out: cell viability) stood at 98.5%. Further, in series [2] (5000 nM), the viability at 3 days, 5 µM is 108%. Also, the viability at 0.0001 µM in series [3] (Mus musculus, read-out: cell viability, CTG, myr-Akt1, 0.1 nM, single replicates) was 90%. Moreover, the “pAkt and downstream targets (immunoblot)” value in series [4] and in series [5] was “dose-dependent reduction of pAkt” each time. The viability at 5 µM in series [6] (Mus musculus, read-out: cell viability, CTG, myr-Akt3, 5000 nM, single replicates) stood at 73.8%.

Values taken from paper PMC8421423, “Cellular model system to dissect the isoform-selectivity of Akt inhibitors” (Nature Communications, 2021).
